Laboratory results taken from patent US20050197350A1, “Novel quinoline, tetrahydroquinazoline, and pyrimidine derivatives and methods of treatment related to the use thereof” (TAISHO PHARMACEUTICAL CO., LTD., priority 2003, published 2005).

The compounds below were run on MCH receptors (assay: MCH receptor activity class (method not given)). Details: class by percent of control at 10^−7 M or IC50.

SMILES	class
Cc1cnc(N[C@H]2CC[C@@H](C(=O)Nc3ccc(C(F)(F)F)cc3)CC2)nc1N(C)C [compound 2791, cis-4-{[4-(dimethylamino)-5-methylpyrimidin-2-yl]amino}-N-[4-(trifluoromethyl)phenyl]cyclohexanecarboxamide]	1 (Class 1: The value of percent of control at 10^−7 M was less than 40% or the value of IC50 was less than 50 nM.)
CSc1ccccc1NC(=O)[C@H]1CC[C@@H](Nc2ncc(C)c(N(C)C)n2)CC1 [compound 2792]	2 (Class 2: The value of percent of control at 10^−7 M was from 40% to 60% or the value of IC′50 was from 50 nM to 200 nM.)
Cc1cnc(N[C@H]2CC[C@@H](C(=O)N3CCc4ccccc4C3)CC2)nc1N(C)C [compound 2793]	3 (Class 3 The value of percent of control at 10^−7 M was more than 60% or the value of IC50 was more than 200 nM.)
Cc1ccc([C@H](C)NC(=O)[C@H]2CC[C@@H](Nc3nc(C)cc(N(C)C)n3)CC2)cc1 [compound 2795]	1 (Class 1: The value of percent of control at 10^−7 M was less than 40% or the value of IC50 was less than 50 nM.)
COc1cccc([C@@H](C)NC(=O)[C@H]2CC[C@@H](Nc3nc(C)cc(N(C)C)n3)CC2)c1 [compound 2796, cis-4-{[4-(dimethylamino)-6-methylpyrimidin-2-yl]amino}-N-[(1R)-1-(3-methoxyphenyl)ethyl]cyclohexanecarboxamide]	2 (Class 2: The value of percent of control at 10^−7 M was from 40% to 60% or the value of IC′50 was from 50 nM to 200 nM.)
Cc1cc(N(C)C)nc(N[C@H]2CC[C@@H](C(=O)N[C@@H](C)c3ccc(Cl)cc3)CC2)n1 [compound 2797, cis-N-[(1S)-1-(4-chlorophenyl)ethyl]-4-{[4-(dimethylamino)-6-methylpyrimidin-2-yl]amino}cyclohexanecarboxamide]	1 (Class 1: The value of percent of control at 10^−7 M was less than 40% or the value of IC50 was less than 50 nM.)
Cc1cc(N(C)C)nc(N[C@H]2CC[C@@H](C(=O)NCc3ccccc3)CC2)n1 [compound 2798, cis-N-benzyl-4-{[4-(dimethylamino)-6-methylpyrimidin-2-yl]amino}cyclohexanecarboxamide]	2 (Class 2: The value of percent of control at 10^−7 M was from 40% to 60% or the value of IC′50 was from 50 nM to 200 nM.)
Cc1cc(N(C)C)nc(N[C@H]2CC[C@@H](C(=O)NCc3ccc(F)cc3)CC2)n1 [compound 2799, cis-4-{[4-(dimethylamino)-6-methylpyrimidin-2-yl]amino}-N-(4-fluorobenzyl)cyclohexanecarboxamide]	2 (Class 2: The value of percent of control at 10^−7 M was from 40% to 60% or the value of IC′50 was from 50 nM to 200 nM.)
Cc1cc(N(C)C)nc(N[C@H]2CC[C@@H](C(=O)NCc3ccccc3F)CC2)n1 [compound 2800]	2 (Class 2: The value of percent of control at 10^−7 M was from 40% to 60% or the value of IC′50 was from 50 nM to 200 nM.)
Cc1cc(N(C)C)nc(N[C@H]2CC[C@@H](C(=O)NCc3ccc(F)c(F)c3)CC2)n1 [compound 2801, cis-N-(3,4-difluorobenzyl)-4-{[4-(dimethylamino)-6-methylpyrimidin-2-yl]amino}cyclohexanecarboxamide]	1 (Class 1: The value of percent of control at 10^−7 M was less than 40% or the value of IC50 was less than 50 nM.)
COc1ccc([C@H](C)NC(=O)[C@H]2CC[C@@H](Nc3nc(C)cc(N(C)C)n3)CC2)cc1 [compound 2802, cis-4-{[4-(dimethylamino)-6-methylpyrimidin-2-yl]amino}-N-[(1S)-1-(4-methoxyphenyl)ethyl]cyclohexanecarboxamide]	1 (Class 1: The value of percent of control at 10^−7 M was less than 40% or the value of IC50 was less than 50 nM.)
COc1cccc([C@H](C)NC(=O)[C@H]2CC[C@@H](Nc3nc(C)cc(N(C)C)n3)CC2)c1 [compound 2803, cis-4-{[4-(dimethylamino)-6-methylpyrimidin-2-yl]amino}-N-[(1S)-1-(3-methoxyphenyl)ethyl]cyclohexanecarboxamide]	2 (Class 2: The value of percent of control at 10^−7 M was from 40% to 60% or the value of IC′50 was from 50 nM to 200 nM.)
Cc1cc(N(C)C)nc(N[C@H]2CC[C@@H](C(=O)N[C@H](C)c3ccc(F)cc3)CC2)n1 [compound 2804]	2 (Class 2: The value of percent of control at 10^−7 M was from 40% to 60% or the value of IC′50 was from 50 nM to 200 nM.)
Cc1cc(N(C)C)nc(N[C@H]2CC[C@@H](C(=O)N[C@H](C)c3ccc(Cl)cc3)CC2)n1 [compound 2805, cis-N-[(1R)-1-(4-chlorophenyl)ethyl]-4-{[4-(dimethylamino)-6-methylpyrimidin-2-yl]amino}cyclohexanecarboxamide]	1 (Class 1: The value of percent of control at 10^−7 M was less than 40% or the value of IC50 was less than 50 nM.)
Cc1cc(N(C)C)nc(N[C@H]2CC[C@@H](C(=O)NCc3cccc(I)c3)CC2)n1 [compound 2806, cis-4-{[4-(dimethylamino)-6-methylpyrimidin-2-yl]amino}-N-(3-iodobenzyl)cyclohexanecarboxamide]	1 (Class 1: The value of percent of control at 10^−7 M was less than 40% or the value of IC50 was less than 50 nM.)
Cc1cc(N(C)C)nc(N[C@H]2CC[C@@H](C(=O)NCc3ccc(Cl)cc3Cl)CC2)n1 [compound 2807, cis-N-(2,4-dichlorobenzyl)-4-{[4-(dimethylamino)-6-methylpyrimidin-2-yl]amino}cyclohexanecarboxamide]	1 (Class 1: The value of percent of control at 10^−7 M was less than 40% or the value of IC50 was less than 50 nM.)
Cc1cc(N(C)C)nc(N[C@H]2CC[C@@H](C(=O)NCc3cc(Cl)ccc3Cl)CC2)n1 [compound 2808, cis-N-(2,5-dichlorobenzyl)-4-{[4-(dimethylamino)-6-methylpyrimidin-2-yl]amino}cyclohexanecarboxamide]	1 (Class 1: The value of percent of control at 10^−7 M was less than 40% or the value of IC50 was less than 50 nM.)
Cc1ccc(CNC(=O)[C@H]2CC[C@@H](Nc3nc(C)cc(N(C)C)n3)CC2)cc1 [compound 2809, cis-4-{[4-(dimethylamino)-6-methylpyrimidin-2-yl]amino}-N-(4-methylbenzyl)cyclohexanecarboxamide]	1 (Class 1: The value of percent of control at 10^−7 M was less than 40% or the value of IC50 was less than 50 nM.)
Cc1cc(N(C)C)nc(N[C@H]2CC[C@@H](C(=O)NCc3cc(Cl)cc(Cl)c3)CC2)n1 [compound 2810, cis-N-(3,5-dichlorobenzyl)-4-{[4-(dimethylamino)-6-methylpyrimidin-2-yl]amino}cyclohexanecarboxamide]	1 (Class 1: The value of percent of control at 10^−7 M was less than 40% or the value of IC50 was less than 50 nM.)
COc1cc(CNC(=O)[C@H]2CC[C@@H](Nc3nc(C)cc(N(C)C)n3)CC2)cc(OC)c1 [compound 2811, cis-N-(3,5-dimethoxybenzyl)-4-{[4-(dimethylamino)-6-methylpyrimidin-2-yl]amino}cyclohexanecarboxamide]	1 (Class 1: The value of percent of control at 10^−7 M was less than 40% or the value of IC50 was less than 50 nM.)
Cc1cc(N(C)C)nc(N[C@H]2CC[C@@H](C(=O)NCc3cccc(Cl)c3)CC2)n1 [compound 2812, cis-N-(3-chlorobenzyl)-4-{[4-(dimethylamino)-6-methylpyrimidin-2-yl]amino}cyclohexanecarboxamide]	1 (Class 1: The value of percent of control at 10^−7 M was less than 40% or the value of IC50 was less than 50 nM.)
Cc1cc(N(C)C)nc(N[C@H]2CC[C@@H](C(=O)NCc3cccc(C(F)(F)F)c3)CC2)n1 [compound 2813, cis-4-{[4-(dimethylamino)-6-methylpyrimidin-2-yl]amino}-N-[3-(trifluoromethyl)benzyl]cyclohexanecarboxamide]	2 (Class 2: The value of percent of control at 10^−7 M was from 40% to 60% or the value of IC′50 was from 50 nM to 200 nM.)
Cc1cc(N(C)C)nc(N[C@H]2CC[C@@H](C(=O)NCc3cc(C(F)(F)F)cc(C(F)(F)F)c3)CC2)n1 [compound 2814, cis-N-[3,5-bis(trifluoromethyl)benzyl]-4-{[4-(dimethylamino)-6-methylpyrimidin-2-yl]amino}cyclohexanecarboxamide]	1 (Class 1: The value of percent of control at 10^−7 M was less than 40% or the value of IC50 was less than 50 nM.)
COc1cccc(CNC(=O)[C@H]2CC[C@@H](Nc3nc(C)cc(N(C)C)n3)CC2)c1 [compound 2815, cis-4-{[4-(dimethylamino)-6-methylpyrimidin-2-yl]amino}-N-(3-methoxybenzyl)cyclohexanecarboxamide]	1 (Class 1: The value of percent of control at 10^−7 M was less than 40% or the value of IC50 was less than 50 nM.)
Cc1cc(N(C)C)nc(N[C@H]2CC[C@@H](C(=O)NCc3ccc(Cl)cc3)CC2)n1 [compound 2816, cis-N-(4-chlorobenzyl)-4-{[4-(dimethylamino)-6-methylpyrimidin-2-yl]amino}cyclohexanecarboxamide]	1 (Class 1: The value of percent of control at 10^−7 M was less than 40% or the value of IC50 was less than 50 nM.)
Cc1cc(N(C)C)nc(N[C@H]2CC[C@@H](C(=O)NCc3ccc(Cl)c(Cl)c3)CC2)n1 [compound 2817, cis-N-(3,4-dichlorobenzyl)-4-{[4-(dimethylamino)-6-methylpyrimidin-2-yl]amino}cyclohexanecarboxamide]	1 (Class 1: The value of percent of control at 10^−7 M was less than 40% or the value of IC50 was less than 50 nM.)
Cc1cc(N(C)C)nc(N[C@H]2CC[C@@H](C(=O)NCc3ccc(F)cc3F)CC2)n1 [compound 2818, cis-N-(2,4-difluorobenzyl)-4-{[4-(dimethylamino)-6-methylpyrimidin-2-yl]amino}cyclohexanecarboxamide]	1 (Class 1: The value of percent of control at 10^−7 M was less than 40% or the value of IC50 was less than 50 nM.)
Cc1cc(N(C)C)nc(N[C@H]2CC[C@@H](C(=O)NCc3cc(F)ccc3F)CC2)n1 [compound 2819, cis-N-(2,5-difluorobenzyl)-4-{[4-(dimethylamino)-6-methylpyrimidin-2-yl]amino}cyclohexanecarboxamide]	1 (Class 1: The value of percent of control at 10^−7 M was less than 40% or the value of IC50 was less than 50 nM.)
